Results reported in paper PMC8999917, “Structure–Activity Relationship of Synthetic Ginkgolic Acid Analogs for Treating Type 2 Diabetes by PTPN9 Inhibition” (International Journal of Molecular Sciences, 2022).

Tests used:
[1] = target: T1, GPR120 (Homo sapiens, UniProt Q5NUL3); test: GPR120 SRE-Luc reporter gene assay in CHO cells; type: cell-based; conditions: 50 μM
T1 construct: host or cells: CHO cells
T1 sequence (Q5NUL3 1-361): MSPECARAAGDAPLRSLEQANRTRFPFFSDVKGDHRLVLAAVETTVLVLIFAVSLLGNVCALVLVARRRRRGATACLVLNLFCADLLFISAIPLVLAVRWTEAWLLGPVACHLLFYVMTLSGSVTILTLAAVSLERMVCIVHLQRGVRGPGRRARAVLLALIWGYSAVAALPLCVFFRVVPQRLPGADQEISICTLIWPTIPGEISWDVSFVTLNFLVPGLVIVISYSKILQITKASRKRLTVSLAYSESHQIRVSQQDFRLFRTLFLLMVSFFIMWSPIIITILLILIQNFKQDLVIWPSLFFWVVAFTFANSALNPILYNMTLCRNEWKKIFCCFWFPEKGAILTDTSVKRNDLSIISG
Text: (§1) Glucose uptake is regulated by three major mechanisms. First, through the activation of the Akt pathway, which promotes GLUT4 translocation via the activation of the signaling cascade involving the insulin receptor substrate (IRS) family and PI3 kinase through […] or G-protein-coupled receptors (GPCRs); second, through the upregulation of AMPK phosphorylation, which increases glucose uptake by inducing GLUT4 translocation to the plasma membrane; third, through the promotion of GLUT4 expression by PPARγ ligands. […] However, these compounds may induce GLUT4 expression and improve insulin sensitivity in the treated cells through their interactions with GPCR and/or PPARγ. Among GPCRs highly expressed in 3T3-L1 adipocytes and C2C12 muscle cells, GPR120 is the receptor that is most closely associated with glucose uptake. […] This was performed following a previously described method. In brief, CHO cells were plated to 96-well white plates (REF3610, Corning Life Sciences, NY, USA) in DMEM (HyClone^TM, Cytivalifescience, Seoul, Korea) supplemented with 10% FBS and 1% penicillin at a density of 1.5 × 10^4 cells/well. […] After incubation for another 24 h, luciferase activity was measured using the dual-luciferase assay system (Promega Korea, Seoul, Korea) according to the manufacturer’s instructions. […]

[2] = target: T2, PPARγ (Homo sapiens, UniProt P37231); test: PPARγ PPRE-Luc reporter gene assay in CHO cells; type: cell-based; conditions: 50 μM
T2 construct: expressed in transfected cells; host or cells: CHO cells
T2 sequence (P37231 1-505): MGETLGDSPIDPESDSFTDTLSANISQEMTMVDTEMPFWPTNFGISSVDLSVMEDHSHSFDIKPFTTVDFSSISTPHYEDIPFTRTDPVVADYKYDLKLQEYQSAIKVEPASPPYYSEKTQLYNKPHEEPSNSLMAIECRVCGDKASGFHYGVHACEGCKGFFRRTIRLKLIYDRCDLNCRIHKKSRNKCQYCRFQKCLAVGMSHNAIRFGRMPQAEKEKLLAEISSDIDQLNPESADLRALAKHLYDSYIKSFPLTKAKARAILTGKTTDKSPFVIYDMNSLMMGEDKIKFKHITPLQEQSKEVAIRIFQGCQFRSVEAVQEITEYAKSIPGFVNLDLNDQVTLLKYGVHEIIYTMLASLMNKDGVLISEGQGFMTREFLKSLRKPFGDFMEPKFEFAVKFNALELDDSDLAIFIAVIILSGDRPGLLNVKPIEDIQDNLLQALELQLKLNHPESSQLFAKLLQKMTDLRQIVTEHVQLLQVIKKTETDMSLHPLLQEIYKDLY
Text: as §1

Compound | GPR120 transcriptional activity (SRE-Luc) [1] | PPARγ transcriptional activity (PPRE-Luc) [2]
CCCCCCCCCCCCCOc1cccc(O)c1C(=O)O [Compound 1e] | No significant change | No significant change
CCCCCCCCCCCCCCCOc1cccc(O)c1C(=O)O [Compound 1f] | No significant change | No significant change
